Assay: Particle size distribution by laser diffraction with dry dispersion
Type: physicochemical
Conditions: after micronization, dry measurement (3 or 4 bar)
Protocol: All measurements cited in the above tables were obtained by laser diffraction with dry dispersion using compressed air. Measuring in aqueous suspension with surfactants may lead to smaller particle sizes (×90 up to 1 μm smaller).
The particle size analysis data are usually reported as cumulative undersized distribution by volume. The symbol x is used to denote the particle size, which is defined as diameter of a volume equivalent sphere. Most common characteristic values are calculated from the particle size distribution by interpolation. Frequently used are the particle sizes at the undersize values of 10%, 50% and 90% of the volume distribution, denoted as x10, x50 and x90. x50 is also known as median particle size. The symbol d is widely used to designate the particle size, thus the symbol x may be replaced by the symbol d.
For `O.O=C(O)c1ccc(CCN(CCc2ccccc2OCc2ccc(-c3ccc(C(F)(F)F)cc3)cc2Cl)[C@H]2CCCc3nc(C(=O)O)ccc32)cc1` [8g], the “PSD X10” value was “X10: 0,5 μm,”, the “PSD X50” value was “X50: 1.8 μm,” and the “PSD X90” value was “X90: 3.9 μm”.
For “Ethyl 5-{[2-(2-{[3-chloro-4′-(trifluoromethyl)biphenyl-4-yl]methoxy}phenyl)ethyl]amino}-5,6,7,8-tetrahydroquinoline-2-carboxylate [example 8a]”, the “PSD X10” value was “X10: 0.4 μm,”, the “PSD X50” value was “X50: 1.7 μm,” and the “PSD X90” value was “X90: 4.2 μm”.
For `O.O=C(O)c1ccc(CCN(CCc2ccccc2OCc2ccc(-c3ccc(C(F)(F)F)cc3)cc2Cl)[C@H]2CCCc3nc(C(=O)O)ccc32)cc1` [8f], the “PSD X10” value was “X10: 0.6 μm,”, the “PSD X50” value was “X50: 2.4 μm,” and the “PSD X90” value was “X90: 6.3 μm”.
In the case of `O.O=C(O)c1ccc(CCN(CCc2ccccc2OCc2ccc(-c3ccc(C(F)(F)F)cc3)cc2Cl)[C@H]2CCCc3nc(C(=O)O)ccc32)cc1` [8d], the “PSD X10” value is reported as “X10: 0.5 μm,”, the “PSD X50” value is reported as “X50: 2.3 μm,” and the “PSD X90” value is reported as “X90: 9.6 μm”.
For `O.O=C(O)c1ccc(CCN(CCc2ccccc2OCc2ccc(-c3ccc(C(F)(F)F)cc3)cc2Cl)[C@H]2CCCc3nc(C(=O)O)ccc32)cc1` [example 8e], the “PSD X10” value was “X10: 0.7 μm,”, the “PSD X50” value was “X50: 2.1 μm,” and the “PSD X90” value was “X90: 6.1 μm”.

— patent US12138256B2, “Treatment of cardiopulmonary disorders” (Bayer Aktiengesellschaft, priority 2021, dated 2024)
